The target in experiment [1] is T1, recombinant, purified human Caspase-1 (Homo sapiens, UniProt P29466).
T1 sequence (P29466 120-297 limits assumed): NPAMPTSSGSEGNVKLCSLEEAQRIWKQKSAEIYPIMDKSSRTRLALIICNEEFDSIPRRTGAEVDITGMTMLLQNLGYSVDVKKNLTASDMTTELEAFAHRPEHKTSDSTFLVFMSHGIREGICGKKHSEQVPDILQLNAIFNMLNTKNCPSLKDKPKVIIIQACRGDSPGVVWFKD
T1 sequence (P29466 317-404 limits assumed): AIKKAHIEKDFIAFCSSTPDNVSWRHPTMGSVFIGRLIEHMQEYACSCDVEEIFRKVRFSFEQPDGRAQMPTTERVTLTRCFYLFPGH
Put plainly: Enzyme assay, caspase inhibition (fluorogenic substrate cleavage). Type of experiment: biochemical. The note with it: second order rate constant of enzyme inactivation; substrate Acetyl-Tyr-Val-Ala-Asp-amino-4-methylcoumarin. The source says:
(§1) The assays for caspase inhibition are based on the cleavage of a fluorogenic substrate by recombinant, purified human Caspases −1, −3, −7 or −8. The assays are run in essentially the same way as those reported by Garcia-Calvo et al., J. Biol. Chem. 273, 32608-32613 (1998), using a substrate specific for each enzyme. The substrate for Caspase-1 is Acetyl-Tyr-Val-Ala-Asp-amino-4-methylcoumarin and the substrate for Caspases −3, −7 and −8 is Acetyl-Asp-Glu-Val-Asp-amino-4-methylcoumarin both as disclosed in Garcia-Calvo et al., J. Biol. Chem. 273, 32608-32613 (1998).
(§2) The observed rate of enzyme inactivation at a particular inhibitor concentration, kobs, is computed by direct fits of the data to the equation derived by Thornberry et al., Biochemistry, 33, […] (1994) using a nonlinear least-squares analysis computer program (PRISM 2.0; GraphPad software). To obtain the second order rate constant, kinact, kobs values are plotted against their respective inhibitor concentrations and kinact values are subsequently calculated by computerized linear regression.
(§3) Compounds with kinact(M^−1s^−1)>500000 are listed as “A”. Compounds with kinact(M^−1s^−1) between 100000 and 500000 are listed as “B”. Compounds with kinact(M^−1s^−1)<100000 are listed as “C”.

Experiment [2] concerns the target T2, recombinant, purified human Caspase-3 (Homo sapiens, UniProt P42574).
T2 sequence (P42574 29-175 limits assumed): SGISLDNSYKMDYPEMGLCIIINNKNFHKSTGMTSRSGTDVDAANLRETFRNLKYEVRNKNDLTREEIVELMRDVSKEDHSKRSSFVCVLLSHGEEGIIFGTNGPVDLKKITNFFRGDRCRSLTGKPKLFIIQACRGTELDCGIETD
T2 sequence (P42574 176-277 limits assumed): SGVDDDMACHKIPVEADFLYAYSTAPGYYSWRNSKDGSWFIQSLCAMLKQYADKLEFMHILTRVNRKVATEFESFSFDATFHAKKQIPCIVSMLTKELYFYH
The experiment is described as above. In kind it is biochemical. The note with it: second order rate constant of enzyme inactivation; substrate Acetyl-Asp-Glu-Val-Asp-amino-4-methylcoumarin.
Text: as §1, §2, §3

Experiment [3] addresses recombinant, purified human Caspase-8 (Homo sapiens, UniProt Q14790). Described as above. In kind it is biochemical. The note with it: second order rate constant of enzyme inactivation; substrate Acetyl-Asp-Glu-Val-Asp-amino-4-methylcoumarin.
Text: as §1, §2, §3

The subject of experiment [4] is IL-1β secretion from human whole blood. The experiment is described as follows: Inhibition of IL-1β secretion from whole blood. Particulars: human whole blood diluted 1:2 in PBS, LPS 5 ng/ml, 18 hours, ELISA. In kind it is cell-based. As for the experimental part:
Human blood is freshly drawn from healthy donors and diluted 1:2 in PBS. To 500 μl of diluted blood […] of prediluted test compound in RPMI medium and […] LPS (5 ng/ml final concentration on the plate) are added (LPS, Serotype 0111:B4, Sigma L3012). After stimulation for 18 hours supernatants are collected and assayed for IL-1β levels using the appropriate ELISA kit (R&D systems).
Compounds with an IC50>10 μM are listed as “A”. Compounds with an IC50 between 1 μM and 10 uM are listed as “B”. Compounds with an IC50<1 μM are listed as “C”.
(ELISA stands for enzyme-linked immunosorbent assay.)

In the next experiment the test system is rat cortical neurons. Put plainly: Hypoxia-induced apoptosis of rat cortical neurons. In kind it is cell-based, Wistar rat. Particulars: Cortical neurone, oxygen-depleted serum-free medium, Cell Death Detection ELISA (DNA fragmentation). As for the experimental part:
Cortical neurons are dissociated from Wistar rat embryos (E17) by a modification of the procedure of Rogers et al., Brain Res. Bulletin, 44:131 (1998). Briefly, cerebral cortices are isolated aseptically from 15-20 Wistar rat embryos. A cell suspension is prepared by mincing the cerebral cortices and digesting them with papain. Cells are washed with ovomucoid enzyme inhibitor and DNaseI and plated onto Poly-D lysine coated plates in high glucose DMEM containing 10% heat-inactivated fetal calf serum, L-glutamine, penicillin and streptomycin. The yield of neurons is […] per embryo and they are 80-90% viable as assessed by Trypan blue exclusion.
The neurons are cultured in complete medium at 37° C. in a normal atmosphere for 48 hours prior to the hypoxia experiments. For hypoxia, the normal cell medium is replaced by oxygen-depleted serum-free medium. Cells are incubated in an atmosphere of 95% N2/5% CO2 for various lengths of time. Compounds are dissolved in DMSO at 100 mM then diluted in medium and added to the culture from time=0. The level of apoptosis is measured using a Cell Death Detection ELISA kit (Roche) which detects DNA fragmentation. Plates are read at 405 nm. Controls included cells cultured in aerobic conditions in serum-containing medium (+serum) and cells cultured in aerobic conditions in serum-deprived medium (−serum).
Compounds with an IC50>0.5 μM are listed as “A”. Compounds with an IC50 between 0.1 μM and 0.5 uM are listed as “B”. Compounds with an IC50<0.1 μM are listed as “C”.

pIC50: −log10 of the molar value.

Chain of recombinant, purified human Caspase-8 (Q14790 217-374 limits assumed): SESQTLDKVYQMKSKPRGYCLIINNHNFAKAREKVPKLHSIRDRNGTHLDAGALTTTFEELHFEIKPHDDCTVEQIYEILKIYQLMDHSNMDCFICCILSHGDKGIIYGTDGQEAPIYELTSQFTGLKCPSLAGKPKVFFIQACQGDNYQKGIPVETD
Chain of recombinant, purified human Caspase-8 (Q14790 385-479 limits assumed): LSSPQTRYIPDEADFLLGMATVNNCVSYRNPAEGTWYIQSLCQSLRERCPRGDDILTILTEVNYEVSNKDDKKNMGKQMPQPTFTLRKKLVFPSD

As for `CC[C@@H](C(=O)N[C@@H](CC(=O)O)C(=O)COc1c(F)c(F)cc(F)c1F)n1ccc2ccccc2c1=O` [Compound 9, (S,S)-3-[2-(1-oxo-1H-isoquinolin-2-yl)-butyrylamino]-4-oxo-5-(2,3,5,6-tetrafluoro-phenoxy)-pentanoic acid], the “kinact Caspase-1” value in experiment [1] is “B (Compounds with kinact(M^−1s^−1) between 100000 and 500000 are listed as “B”)”. For the same compound, the “kinact Caspase-3” value in experiment [2] is “B (Compounds with kinact(M^−1s^−1) between 100000 and 500000 are listed as “B”)”. Further, the “kinact Caspase-8” value in experiment [3] was “C (Compounds with kinact(M^−1s^−1)<100000 are listed as “C”)”. The negative logarithm of the IC50 (pIC50) (as a rule, the negative decadic logarithm of the IC50, by convention in mol/L) in experiment [4] was below 5.00; with rat cortical neurons, 6.30 to 7.00.
Turning to `CC[C@@H](C(=O)N[C@@H](CC(=O)O)C(=O)COc1c(F)c(F)cc(F)c1F)n1ccc2ccc(Cl)cc2c1=O` [Compound 10, (S,S)-3-[2-(7-chloro-1-oxo-1H-isoquinolin-2-yl)-butyrylamino]-4-oxo-5-(2,3,5,6-tetrafluoro-phenoxy)-pentanoic acid], the “kinact Caspase-1” value in experiment [1] is “A (Compounds with kinact(M^−1s^−1)>500000 are listed as “A”)”. The “kinact Caspase-3” value in experiment [2] is on record as “A (Compounds with kinact(M^−1s^−1)>500000 are listed as “A”)”. The “kinact Caspase-8” value in experiment [3] is on record as “C (Compounds with kinact(M^−1s^−1)<100000 are listed as “C”)”. Also, the pIC50 in experiment [4] was 5.00 to 6.00; in the experiment with rat cortical neurons, above 7.00.
With `CC[C@@H](C(=O)N[C@@H](CC(=O)O)C(=O)COc1c(F)c(F)cc(F)c1F)n1ccc2cc(Cl)c(Cl)cc2c1=O` [Compound 11, (S,S)-3-[2-(6,7-dichloro-1-oxo-1H-isoquinolin-2-yl)-butyrylamino]-4-oxo-5-(2,3,5,6-tetrafluoro-phenoxy)-pentanoic acid], the “kinact Caspase-1” value in experiment [1] is “A (Compounds with kinact(M^−1s^−1)>500000 are listed as “A”)”. Moreover, the “kinact Caspase-3” value in experiment [2] is listed as “A (Compounds with kinact(M^−1s^−1)>500000 are listed as “A”)”. Further, the “kinact Caspase-8” value in experiment [3] is “C (Compounds with kinact(M^−1s^−1)<100000 are listed as “C”)”. For the same compound, the results for the pIC50 (in experiment [4]; in the experiment on rat cortical neurons) were below 5.00 and 6.30 to 7.00, respectively.
Take `CC[C@@H](C(=O)NC(CC(=O)O)C(=O)CF)n1cnc2ccc(Oc3ccccc3Cl)cc2c1=O` (stereo partly drawn) [Compound 12, 3-[(2S)-2-[6-(2-Chloro-phenoxy)-4-oxo-4H-quinazolin-3-yl)-butyrylamino]-5-fluoro-4-oxo-pentanoic acid]: the “kinact Caspase-1” value in experiment [1] was “A (Compounds with kinact(M^−1s^−1)>500000 are listed as “A”)”. Also, the “kinact Caspase-3” value in experiment [2] is recorded as “A (Compounds with kinact(M^−1s^−1)>500000 are listed as “A”)”. Moreover, the “kinact Caspase-8” value in experiment [3] is “A (Compounds with kinact(M^−1s^−1)>500000 are listed as “A”)”. In addition, the negative logarithm of the IC50 (pIC50) was 5.00 to 6.00 in experiment [4] and below 6.30 in the experiment with rat cortical neurons.
Regarding `CC[C@@H](C(=O)NC(CC(=O)O)C(=O)CF)n1cnc2ccc(Oc3cccc(Cl)c3)cc2c1=O` (stereo partly drawn) [Compound 13, 3-[(2S)-2-[6-(3-Chlorophenoxy)-4-oxo-4H-quinazolin-3-yl)-butyrylamino]-5-fluoro-4-oxo-pentanoic acid], the “kinact Caspase-1” value in experiment [1] was “B (Compounds with kinact(M^−1s^−1) between 100000 and 500000 are listed as “B”)”. The “kinact Caspase-3” value in experiment [2] was “B (Compounds with kinact(M^−1s^−1) between 100000 and 500000 are listed as “B”)”. Further, the “kinact Caspase-8” value in experiment [3] is given as “A (Compounds with kinact(M^−1s^−1)>500000 are listed as “A”)”. Moreover, the negative logarithm of the IC50 (pIC50) in experiment [4] is 5.00 to 6.00; in the experiment on rat cortical neurons it was 6.30 to 7.00.
On to `CC[C@@H](C(=O)NC(CC(=O)O)C(=O)CF)n1cnc2ccc(Oc3cccc(F)c3)cc2c1=O` (stereo partly drawn) [Compound 14, 5-Fluoro-3-{(2S)-2[6-(3-fluorophenoxy)-4-oxo-4H-quinazolin-3-yl]-butyrylamino}-4-oxo-pentanoic acid], for which the “kinact Caspase-1” value in experiment [1] is recorded as “A (Compounds with kinact(M^−1s^−1)>500000 are listed as “A”)”. Also, the “kinact Caspase-3” value in experiment [2] is “A (Compounds with kinact(M^−1s^−1)>500000 are listed as “A”)”. Further, in experiment [3], the “kinact Caspase-8” value was “B (Compounds with kinact(M^−1s^−1) between 100000 and 500000 are listed as “B”)”. The negative-log IC50 (pIC50) was above 6.00 in experiment [4] and below 6.30 in the experiment on rat cortical neurons.
As for `CC[C@@H](C(=O)NC(CC(=O)O)C(=O)CF)n1cnc2ccc(Oc3ccc(Cl)cc3Cl)cc2c1=O` (stereo partly drawn) [Compound 15, 3-{(2S)-2-[6-(2,4-Dichloro-phenoxy)-4-oxo-4H-quinazolin-3-yl]-butyrylamino}-5-fluoro-4-oxo-pentanoic acid], the “kinact Caspase-1” value in experiment [1] was “B (Compounds with kinact(M^−1s^−1) between 100000 and 500000 are listed as “B”)”. For the same compound, the “kinact Caspase-3” value in experiment [2] was “B (Compounds with kinact(M^−1s^−1) between 100000 and 500000 are listed as “B”)”. In experiment [3], the “kinact Caspase-8” value was “A (Compounds with kinact(M^−1s^−1)>500000 are listed as “A”)”. Further, the negative-log IC50 (pIC50) was 5.00 to 6.00 in experiment [4] and 6.30 to 7.00 in the experiment on rat cortical neurons.
Take `CC[C@@H](C(=O)NC(CC(=O)O)C(=O)CF)n1cnc2ccc(Sc3ccccc3)cc2c1=O` (stereo partly drawn) [Compound 16, 5-Fluoro-4-oxo-3-[(2S)-2-(4-oxo-6-phenylsulfanyl-4H-quinazolin-3-yl)-butyrylamino]-pentanoic acid]: the “kinact Caspase-1” value in experiment [1] is listed as “A (Compounds with kinact(M^−1s^−1)>500000 are listed as “A”)”. Besides, in experiment [2], the “kinact Caspase-3” value is “A (Compounds with kinact(M^−1s^−1)>500000 are listed as “A”)”. Moreover, the “kinact Caspase-8” value in experiment [3] is listed as “A (Compounds with kinact(M^−1s^−1)>500000 are listed as “A”)”. The results for the pIC50 (in experiment [4]; in the experiment on rat cortical neurons) were 5.00 to 6.00 and 6.30 to 7.00, respectively.
`CC[C@@H](C(=O)NC(CC(=O)O)C(=O)CF)n1cnc2ccc(Sc3cccc(F)c3)cc2c1=O` (stereo partly drawn) [Compound 17, 5-Fluoro-3{(2S)-2[6-(3-fluoro-phenylsulfanyl)-4-oxo-4H-quinazolin-3-yl]-butyrylamino}-4-oxo-pentanoic acid]: the “kinact Caspase-1” value in experiment [1] is listed as “A (Compounds with kinact(M^−1s^−1)>500000 are listed as “A”)”. Moreover, the “kinact Caspase-3” value in experiment [2] was “A (Compounds with kinact(M^−1s^−1)>500000 are listed as “A”)”. In experiment [3], the “kinact Caspase-8” value was “A (Compounds with kinact(M^−1s^−1)>500000 are listed as “A”)”. The negative-log IC50 (pIC50) in experiment [4] was 5.00 to 6.00; with rat cortical neurons, 6.30 to 7.00.
Regarding `CC[C@@H](C(=O)N[C@@H](CC(=O)O)C(=O)COc1c(F)c(F)cc(F)c1F)n1ccc2ccc(C(F)(F)F)cc2c1=O` [Compound 19, (S,S)-3-[2-(7-trifluoromethyl-1-oxo-1H-isoquinolin-2-yl)-butyrylamino]-4-oxo-5-(2,3,5,6-tetrafluoro-phenoxy)-pentanoic acid], the “kinact Caspase-1” value in experiment [1] is listed as “A (Compounds with kinact(M^−1s^−1)>500000 are listed as “A”)”. Moreover, in experiment [2], the “kinact Caspase-3” value is listed as “A (Compounds with kinact(M^−1s^−1)>500000 are listed as “A”)”. Also, in experiment [3], the “kinact Caspase-8” value is listed as “C (Compounds with kinact(M^−1s^−1)<100000 are listed as “C”)”. Besides, the pIC50 in experiment [4] was 5.00 to 6.00; in the experiment on rat cortical neurons it was above 7.00.
